Data set [1] deals with H9c2 cells. Nature of the data set: MTT-based cell proliferation assay under normoxia, H9c2. Set-up: species or system rat. The note with it: H9c2, 10 µM peptide, 48 h, triplicates. The source says: (§1) In addition, β-gB1 is non-toxic to Vero and BHK (baby hamster kidney) cell lines based on an MTT assay. […] LDH is a cytoplasmic enzyme which is rapidly released into the cell culture medium upon plasma membrane damage and is widely used as a marker for cytotoxicity. Thus, an LDH-release assay measures the level of plasma membrane damage to a cell population.
(§2) Rat cardio-myoblast cells (H9c2) and […] neuron-like SH-SY5Y cells were purchased from ATCC and maintained in DMEM (Dulbecco’s modified eagle medium) medium supplemented with 10% fetal bovine serum (FBS), 10,000 U/mL of penicillin, and 10,000 µg/mL of streptomycin at 37 °C, 5% CO2.
(§3) Cells were cultured in DMEM with or without β-gB1/S-alkylated β-gB1 (β-gB1Alk) for 48 h under normoxia, hypoxia, and hypoxia-reoxygenation conditions. Phosphate-buffered saline (PBS) was used as a vehicle control. After 48 h, MTT (3-(4,5-dimethylthiazol-2-yl)-2,5-diphenyltetrazolium bromide) reagent was added with a final concentration of 0.5 mg/mL, and it was incubated at 37 °C for 2 h. The culture medium was then aspirated, and purple formazan crystals were dissolved in DMSO for colorimetric quantification at 570 nm using a microplate reader with a reference wavelength of 630 nm. […]

Data set [2] has as its system SH-SY5Y cells. Kind of data set: LDH release cytotoxicity assay, SH-SY5Y. In kind it is cell-based, mouse. The following applies: 10 µM peptide, 48 h, 37 °C, LDH kit, 450 nm, triplicates.
Description: as §1, §2
(§4) An LDH release assay was performed using the CytoSelect™ LDH cytotoxicity assay kit (CBA-241, Cell Biolabs, Inc., San Diego, CA, USA). In brief, cells were cultured in DMEM with or without 10 µM of β-gB1 and S-alkylated β-gB1 (β-gB1Alk) for 48 h at 37 °C and 5% CO2. PBS was used for the vehicle control experiment. The culture medium was transferred and mixed with the LDH assay reagent in a ratio of 9:1. The reaction mixture was incubated at 37 °C for 2 h, and colorimetric quantification was performed using a 450 nm wavelength. The assay was performed in experimental triplicates, and statistical calculations and bar graphs were done using GraphPad Prism software (Version 6.01). […]
(LDH in the medium is a marker of cell lysis.)

For data set [3], the system named is SH-SY5Y cells. Kind of data set: MTT-based cell proliferation assay under normoxia, SH-SY5Y. Set-up: species or system human. The note with it: 10 µM peptide, 48 h, triplicates.
Description: as §1, §2, §3

The test system of data set [4] is H9c2 cells. Kind of data set: LDH release cytotoxicity assay, H9c2. In kind it is cell-based, rat. The following applies: H9c2, 10 µM peptide, 48 h, 37 °C; LDH kit, 450 nm; triplicates.
Description: as §1, §2, §4

The subject of data set [5] is trypsin. Kind of data set: Enzymatic (proteolytic) stability against trypsin. The following applies: trypsin, 37 °C, five minute treatment; MALDI-TOF MS and C18 RP-HPLC. Format: in vitro ADME. Here is the method:
(§5) To assess the proteolytic stability of β-gB1, it was treated with trypsin or pepsin for 6 h. […] Similarly, the S-alkylated β-gB1 was degraded completely by pepsin within 30 min. […] This is in agreement with other plant CRPs that contain a compact structure, whose proteolytic stability was examined up to six hours treatment.
(§6) The folded β-gB1 (28 µg) was added to 100 μL of a 0.1 M ammonium bicarbonate buffer (pH 7.8) containing 800 U/mL of trypsin or 4 mg/mL of pepsin and incubated at 37 °C for 6 h. At each time-point (0, 1, 2, 4, and 6 h), 20 µL of the treated sample was aliquoted and quenched by adding 5 µL of 1 M hydrochloric acid or 0.8 μL of 1 M sodium hydroxide. The reduced β-gB1 was alkylated with iodoacetamide (S-alkylated β-gB1) and used as a control in this study. The reaction mixture was analyzed by MALDI-TOF MS and C18-reversed-phase HPLC to determine its stability.

Data set [6] deals with T1, pepsin (Sus scrofa, UniProt P00791).
T1 construct: purchased Sigma-Aldrich
Kind of data set: Enzymatic (proteolytic) stability against pepsin. In kind it is in vitro ADME. The note with it: 37 °C, MALDI-TOF MS and C18 RP-HPLC. Here is the method:
as §5, §6

Entries after “also recorded” stand apart in the source; their conditions may differ. Where a SMILES comes first, the peptide text is derived from it. The star is where a group is joined. Cam = NC(=O)C*

T1 sequence (P00791 60-385): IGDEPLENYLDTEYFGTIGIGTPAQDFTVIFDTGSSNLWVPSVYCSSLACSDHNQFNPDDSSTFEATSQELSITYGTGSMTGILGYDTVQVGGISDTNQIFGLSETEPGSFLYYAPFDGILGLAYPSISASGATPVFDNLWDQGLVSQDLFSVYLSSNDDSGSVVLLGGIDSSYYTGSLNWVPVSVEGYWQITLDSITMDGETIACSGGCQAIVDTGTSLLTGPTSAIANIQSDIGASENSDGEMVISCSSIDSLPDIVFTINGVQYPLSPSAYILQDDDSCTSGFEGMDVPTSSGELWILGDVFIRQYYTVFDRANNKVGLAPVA

In the case of `CC[C@H](C)[C@H](NC(=O)[C@H](CSCC(N)=O)NC(=O)CNC(=O)[C@H](Cc1ccc(O)cc1)NC(=O)[C@H](CCC(=O)O)NC(=O)[C@H](CC(=O)O)NC(=O)[C@H](CC(C)C)NC(=O)[C@H](Cc1ccc(O)cc1)NC(=O)[C@H](CSCC(N)=O)NC(=O)[C@H](CSCC(N)=O)NC(=O)[C@H](CCCNC(=N)N)NC(=O)[C@H](CCCCN)NC(=O)[C@H](CSCC(N)=O)NC(=O)CNC(=O)[C@@H](NC(=O)[C@H](CCC(=O)O)NC(=O)[C@@H](N)Cc1ccc(O)cc1)[C@@H](C)O)C(=O)N[C@@H](CCCNC(=N)N)C(=O)N[C@@H](CSCC(N)=O)C(=O)N[C@@H](CSCC(N)=O)C(=O)O` [S-alkylated β-gB1, reference compound] (H-YETGC(Cam)KRC(Cam)C(Cam)YLDEYGC(Cam)IRC(Cam)C(Cam)-OH), the “Cell viability (growth or death) under normoxia” value in data set [1] and in data set [3] was “No change in cell viability; also recorded: no significant effect on the growth or death” in each case. The “Cytotoxicity / cell-membrane damage by LDH release” value in data set [2] and in data set [4] was “no significant cytotoxicity or cell-membrane damaging effects” throughout. The “Degradation by trypsin after five minute treatment” value in data set [5] is given as “completely degraded”. Besides, in data set [6], the “Time to complete degradation by pepsin” value is at most 30 min.

Source of the values: paper PMC6651024, “LIR Motif-Containing Hyperdisulfide β-Ginkgotide is Cytoprotective, Adaptogenic, and Scaffold-Ready” (Molecules, 2019).
